Among the test systems are OVCAR-8 ovarian; SK-MEL-28 melanoma; DU-145 prostate; MCF7 breast; SF-295 CNS; NCI-H522 lung; MALME-3M melanoma; NCI-H23 lung; CCRF-CEM leukemia; HCT-116 colon; NCI-H226 lung; SF-539 CNS; IGROV1 ovarian; HS 578T breast; MOLT-4 leukemia; SNB-19 CNS.
What all share (assay): growth of human tumour cells (NCI), 48 h

The structures appear in SMILES notation. Where “and” joins values, the source holds several entries; their conditions need not be identical. Equal entries are not always repeated.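 The compound was tested at five concentrations on cells cultured in 96-well plates, with a 48-hour exposure period. At the GI50, growth is halved. At the TGI there is no net growth.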 Where a SMILES comes first, the peptide text is derived from it. The star is where a group is joined. Boc = CC(C)(C)OC(=O)*; Bn = c1ccc(C*)cc1

In the case of `CCCCCCCCCCOCCOCCOCCOCCCCC(O)CCCCCCCC1=C[C@H](C)OC1=O` (stereo partly specified), the TGI turned out to be 33.6 µM with OVCAR-8 ovarian; 25.3 µM in the assay on SK-MEL-28 melanoma; 41.3 µM in the assay with DU-145 prostate; 20 µM in the assay with MCF7 breast; 21.5 µM in the assay with SF-295 CNS; 21.1 µM with NCI-H522 lung. In addition, the TGI is 46.3 µM with MALME-3M melanoma; 16.6 µM in the assay on NCI-H23 lung; 51.1 µM in the assay on CCRF-CEM leukemia; 37.7 µM in the assay with HCT-116 colon; 23.4 µM in the assay on NCI-H226 lung; 24.5 µM in the assay with SF-539 CNS. For the same compound, the TGI with IGROV1 ovarian was determined as 30.5 µM; in the assay on HS 578T breast, 31.1 µM; in the assay on MOLT-4 leukemia it was 20.8 µM; in the assay on SNB-19 CNS, 27.2 µM.

Turning to `CCOC(=O)C1(N)CC1`, the TGI in the assay on OVCAR-8 ovarian, in the assay on SK-MEL-28 melanoma, with DU-145 prostate, in the assay with MCF7 breast, in the assay on SF-295 CNS and in the assay with NCI-H522 lung was > 100 µM throughout. Besides, the TGI with MALME-3M melanoma, in the assay with NCI-H23 lung, in the assay with CCRF-CEM leukemia, in the assay on HCT-116 colon, in the assay on NCI-H226 lung and with SF-539 CNS was > 100 µM in each case. Moreover, the TGI in the assay on IGROV1 ovarian, with HS 578T breast, with MOLT-4 leukemia and with SNB-19 CNS was > 100 µM in each case.

As to `C(#CC1(Nc2ccccc2)CCN(Cc2ccccc2)CC1)C1(Nc2ccccc2)CCN(Cc2ccccc2)CC1`, the TGI with OVCAR-8 ovarian was 53.5 µM; in the assay with SK-MEL-28 melanoma, 26.7 µM; with DU-145 prostate it was > 56.2 µM; with MCF7 breast it was > 56.2 µM; in the assay with SF-295 CNS, > 56.2 µM; in the assay on NCI-H522 lung it was > 56.2 µM. For the same compound, the TGI was > 65.6 µM in the assay with MALME-3M melanoma; > 56.2 µM in the assay on NCI-H23 lung; 37.3 µM in the assay with CCRF-CEM leukemia; 54.2 µM with HCT-116 colon; > 56.2 µM with NCI-H226 lung; 34.9 µM in the assay with SF-539 CNS. Moreover, the TGI with IGROV1 ovarian was > 46.4 µM; with HS 578T breast, 37.2 µM; in the assay with MOLT-4 leukemia, 32.7 µM; with SNB-19 CNS, 52.9 µM.

On to `COc1cc(CNc2c3ccccc3nc3ccccc23)cc(OC)c1OC`, for which the TGI in the assay on OVCAR-8 ovarian was 14 µM; with SK-MEL-28 melanoma, 20.2 µM; in the assay with DU-145 prostate it was > 52.1 µM; with MCF7 breast, > 32.9 µM; in the assay with SF-295 CNS, 14.4 µM; in the assay with NCI-H522 lung it was 11.6 µM. The TGI in the assay with MALME-3M melanoma was 12.5 µM; in the assay with NCI-H23 lung it was 18.5 µM; in the assay with CCRF-CEM leukemia, > 23.2 µM; in the assay on HCT-116 colon, 11.2 µM; in the assay on NCI-H226 lung, 10.3 µM; in the assay on SF-539 CNS, 15.7 µM. Also, the TGI with IGROV1 ovarian is 25.2 µM; in the assay on HS 578T breast, 29.8 µM; in the assay with MOLT-4 leukemia, > 22 µM; in the assay on SNB-19 CNS, 24.3 µM.

Consider `CCCC(=O)OC[n+]1ccc(-c2c(COC(=O)NC(C)C)c(COC(=O)NC(C)C)c3n2CCC3)cc1`, for which the TGI in the assay with OVCAR-8 ovarian, in the assay with SK-MEL-28 melanoma, with DU-145 prostate, in the assay on MCF7 breast, in the assay on SF-295 CNS and with NCI-H522 lung was > 100 µM throughout. Moreover, the TGI in the assay on MALME-3M melanoma, in the assay on NCI-H23 lung, in the assay with CCRF-CEM leukemia, in the assay on HCT-116 colon, in the assay with NCI-H226 lung and in the assay on SF-539 CNS was > 100 µM each time. Besides, the TGI in the assay on IGROV1 ovarian, in the assay on HS 578T breast, with MOLT-4 leukemia and with SNB-19 CNS was > 100 µM each time.

`CCC(C)C(NC(=O)C(CC(C)C)NC(=O)CNC(=O)C(NC(=O)C1CCCN1C(=O)C(CC(C)C)NC(=O)C(N)Cc1ccccc1)C(C)CC)C(=O)NC(CC(C)C)C(N)=O` (stereo unspecified) (H-FLPIGLIL-NH2; configuration not given here): the TGI in the assay on OVCAR-8 ovarian, in the assay with SK-MEL-28 melanoma, in the assay on DU-145 prostate, with MCF7 breast, in the assay with SF-295 CNS and with NCI-H522 lung was > 75 µM throughout. In addition, the TGI in the assay on MALME-3M melanoma, in the assay with NCI-H23 lung, in the assay on CCRF-CEM leukemia, with HCT-116 colon, with NCI-H226 lung and in the assay on SF-539 CNS was > 75 µM in each case. Also, the TGI with IGROV1 ovarian, in the assay on HS 578T breast, in the assay with MOLT-4 leukemia and in the assay on SNB-19 CNS was > 75 µM each time.

Consider `O=C(Nc1cccc(C(=O)NCCCO)c1)/C(=C/c1ccccc1)NC(=O)c1ccccc1`, for which the TGI in the assay with OVCAR-8 ovarian, in the assay with SK-MEL-28 melanoma, in the assay on DU-145 prostate, in the assay with MCF7 breast, in the assay on SF-295 CNS and in the assay with NCI-H522 lung was > 100 µM each time. The TGI in the assay on MALME-3M melanoma, with NCI-H23 lung, with CCRF-CEM leukemia, with HCT-116 colon, in the assay with NCI-H226 lung and in the assay on SF-539 CNS was > 100 µM each time. The TGI in the assay with IGROV1 ovarian, with HS 578T breast, in the assay on MOLT-4 leukemia and in the assay with SNB-19 CNS was > 100 µM throughout.

Take `CN(C)c1ccc(/C=C(\NC(=O)c2ccccc2)C(=O)Nc2cccc(C(=O)NCCCO)c2)cc1`: the TGI in the assay on OVCAR-8 ovarian, in the assay with SK-MEL-28 melanoma, in the assay on DU-145 prostate, in the assay on MCF7 breast, with SF-295 CNS and in the assay with NCI-H522 lung was > 100 µM in each case. The TGI in the assay with MALME-3M melanoma, with NCI-H23 lung, in the assay on CCRF-CEM leukemia, in the assay with HCT-116 colon, in the assay on NCI-H226 lung and in the assay on SF-539 CNS was > 100 µM in each case. Besides, the TGI in the assay with IGROV1 ovarian, with HS 578T breast, in the assay with MOLT-4 leukemia and in the assay with SNB-19 CNS was > 100 µM throughout.

Take `CNC(=O)C(CC(C)C)NC(=O)C(C)NC(=O)C(Cc1ccc(OCc2ccccc2)cc1)NC(=O)C(COCc1ccccc1)NC(=O)OC(C)(C)C` (stereo unspecified) (Boc-S(Bn)Y(Bn)AL-NHMe; configuration not given here): the TGI in the assay on OVCAR-8 ovarian is 35 µM and 48.5 µM; in the assay on SK-MEL-28 melanoma it was > 100 µM and 30.9 µM; with DU-145 prostate, > 100 µM; in the assay with MCF7 breast, 35.5 µM and 26.2 µM; in the assay with SF-295 CNS, > 61 µM and 41.2 µM; in the assay on NCI-H522 lung, 37.4 µM. Moreover, the TGI in the assay with MALME-3M melanoma is > 100 µM and 18.1 µM; in the assay on NCI-H23 lung, > 71.1 µM and 43.3 µM; in the assay on CCRF-CEM leukemia, 18.9 µM and 39.6 µM; in the assay on HCT-116 colon, 20.1 µM and 20.5 µM; in the assay with NCI-H226 lung, > 68.5 µM and 39 µM; in the assay with SF-539 CNS, > 57.8 µM. Moreover, the TGI in the assay with IGROV1 ovarian is 53.9 µM and 63.7 µM; with HS 578T breast, 58.1 µM and 31.4 µM; with MOLT-4 leukemia, 22.9 µM and 38.5 µM; in the assay with SNB-19 CNS, > 58 µM and 36.9 µM. The GI50 in the assay with SK-MEL-28 melanoma was > 62.5 µM and 14.1 µM; in the assay on SF-295 CNS, > 43.9 µM and 21 µM; in the assay with CCRF-CEM leukemia, 4.39 µM and 10.5 µM; in the assay with NCI-H226 lung, 44.3 µM and 15.2 µM.

Take `CN1CC2=C(NC(=S)NC2c2ccccc2Cl)/C(=C/c2ccccc2Cl)C1` (stereo unspecified): the TGI with OVCAR-8 ovarian, in the assay with SK-MEL-28 melanoma, in the assay with DU-145 prostate, in the assay with MCF7 breast, with SF-295 CNS and in the assay on NCI-H522 lung was > 100 µM each time. The TGI was 74.4 µM in the assay with MALME-3M melanoma; > 100 µM with NCI-H23 lung; > 100 µM in the assay with CCRF-CEM leukemia; > 100 µM in the assay on HCT-116 colon; > 100 µM with NCI-H226 lung; > 100 µM in the assay with SF-539 CNS. Besides, the TGI in the assay on IGROV1 ovarian is > 100 µM; in the assay with HS 578T breast, > 100 µM; in the assay on MOLT-4 leukemia, 75.5 µM; with SNB-19 CNS it was > 100 µM.

`CC(=O)NC1COC(COC(=O)CCCCCCCCCCNC(=O)c2ccc([N+](=O)[O-])c3c(=O)c4ccccc4[nH]c23)C(O)C1OC(C)C(=O)NC(C(=O)NC(CCC(N)=O)C(=O)OCc1ccccc1)C(C)C` (stereo unspecified): the TGI in the assay on OVCAR-8 ovarian is 44.1 µM; in the assay on SK-MEL-28 melanoma, 41.7 µM; in the assay with DU-145 prostate it was 12.3 µM; with MCF7 breast, 14.8 µM; in the assay with SF-295 CNS, 42.7 µM; in the assay with NCI-H522 lung, 35.4 µM. The TGI in the assay with MALME-3M melanoma was > 83.8 µM; with NCI-H23 lung, 27.3 µM; in the assay on CCRF-CEM leukemia, 62.7 µM; in the assay on HCT-116 colon it was 42.7 µM; in the assay on NCI-H226 lung, 85.5 µM; in the assay with SF-539 CNS, 58.3 µM. The TGI came out at 18.3 µM in the assay on IGROV1 ovarian, 17.6 µM in the assay with HS 578T breast, 61.3 µM in the assay with MOLT-4 leukemia and 18.5 µM in the assay on SNB-19 CNS.

For `CC(=O)Nc1cc2nc3n(c2cc1C)CCC3OC(C)=O` (stereo unspecified), the TGI in the assay with OVCAR-8 ovarian, in the assay on SK-MEL-28 melanoma, with DU-145 prostate, in the assay with MCF7 breast, in the assay with SF-295 CNS and in the assay with NCI-H522 lung was > 100 µM throughout. For the same compound, the TGI in the assay on MALME-3M melanoma, with NCI-H23 lung, in the assay with CCRF-CEM leukemia, in the assay on HCT-116 colon, in the assay on NCI-H226 lung and with SF-539 CNS was > 100 µM in each case. For the same compound, the TGI in the assay on IGROV1 ovarian, with HS 578T breast, in the assay on MOLT-4 leukemia and in the assay with SNB-19 CNS was > 100 µM throughout.
